Laboratory results as given in ChEMBL document CHEMBL1649499, “Nine-hospital study comparing broth microdilution and Etest method results for vancomycin and daptomycin against methicillin-resistant Staphylococcus aureus” (2009).
In brackets after ≈: the same amount, converted by molar mass.

Key:
Staphylococcus aureus [1] = test: Antibacterial activity against methicillin-resistant Staphylococcus aureus by Etest method; format: functional
Staphylococcus aureus [2] = test: Antibacterial activity against methicillin-resistant Staphylococcus aureus by broth microdilution method; format: functional

Row | SMILES | MIC (Staphylococcus aureus [1]) [µg/mL] | MIC (Staphylococcus aureus [2]) [µg/mL]
1 | CCCCCCCCCC(=O)N[C@@H](Cc1c[nH]c2ccccc12)C(=O)N[C@H](CC(N)=O)C(=O)N[C@@H](CC(=O)O)C(=O)N[C@@H]1C(=O)NCC(=O)N[C@@H](CCCN)C(=O)N[C@@H](CC(=O)O)C(=O)N[C@H](C)C(=O)N[C@@H](CC(=O)O)C(=O)NCC(=O)N[C@H](CO)C(=O)N[C@@H]([C@H](C)CC(=O)O)C(=O)N[C@@H](CC(=O)c2ccccc2N)C(=O)O[C@@H]1C | 0.38 (≈ 0.234 µM) | ≤ 0.25
2 | CN[C@H](CC(C)C)C(=O)N[C@H]1C(=O)N[C@@H](CC(N)=O)C(=O)N[C@H]2C(=O)N[C@H]3C(=O)N[C@H](C(=O)N[C@H](C(=O)O)c4cc(O)cc(O)c4-c4cc3ccc4O)[C@H](O)c3ccc(c(Cl)c3)Oc3cc2cc(c3O[C@@H]2O[C@H](CO)[C@@H](O)[C@H](O)[C@H]2O[C@H]2C[C@](C)(N)[C@H](O)[C@H](C)O2)Oc2ccc(cc2Cl)[C@H]1O [VANCOMYCIN] | – | > 1
